Consider four compounds from patent publication US11892406B2, “Method and device for assaying the interaction and dynamics of permeation of a molecule and a lipid bilayer” (DUBLIN CITY UNIVERSITY, priority 2018, dated 2024).

Common to all, as to format: in vitro ADME
Data set [1] in a line: Metal enhanced fluorescence permeation assay, DOPC bilayer spanned over gold microcavity array. The method, then: (§1) Following removal of PS spheres, if in place, washing and aqueous filling of the array a Langmuir monolayer of lipids was spread across the micropore array, using either a Model 102M, LB trough or Model KN2006 from KSV-NIMA technology, LB alternate. The lipid mixture (across single or diverse lipid compositions) was prepared in chloroform at a concentration of 1 mg/ml. 50 μL of this solution was suspended on the water sub-phase. Fifteen minutes were allocated for evaporation of the solvent, prior to lipid monolayer compression. […]
(§2) A Horiba Labram HR instrument was used for both Raman and fluorescence measurements using a 50× long distance magnification objective (Leica). The wavelengths were typically 473 nm and 785 nm were used for fluorescence measurements and Raman measurements respectively. […] Typically a 1% neutral density filter and 300 μm slit were used for fluorescence and no filter for Raman. […]
(§3) For drug/molecular diffusion studies, drug solutions were prepared as stock solutions for introduction into the bilayer contacting solution dissolved in PBS or Tris buffer at concentrations that permitted final concentrations (on contact with the bilayer buffer) of 1 nM to several millimolar. […] Drug diffusion samples were analysed by first obtaining a bilayer spectra while sample is immersed in PBS. […]

Data set [2] is described as follows: Metal enhanced fluorescence permeation assay, ternary domain forming lipid bilayer on gold microcavity array. The conditions noted are these: 0.1 mM. On the procedure:
as §1, §2, §3

Data set [3] in a line: SERS permeation assay, DOPC lipid bilayer suspended over gold cavity array. The conditions noted are these: 1 um gold array, PBS buffer, 785 nm. On the procedure:
as §1, §2, §3

Molecules are shown by their SMILES.

With `COc1cccc2c1C(=O)c1c(O)c3c(c(O)c1C2=O)C[C@@](O)(C(=O)CO)C[C@@H]3O[C@H]1C[C@H](N)[C@H](O)[C@H](C)O1` [Doxorubicin], the “permeation through DOPC bilayer (fluorescent peak area at 600 nm vs time)” value in data set [1] (0.1 mM, 2-hour monitoring, 1 μm diameter gold array) is given as “diffusing through the bilayer”.

As to `COc1cccc2c1C(=O)c1c(O)c3c(c(O)c1C2=O)C[C@@](O)(C(C)=O)C[C@@H]3O[C@H]1C[C@H](N)[C@H](O)[C@H](C)O1` [Duanorubicin], the “permeability of ternary lipid bilayer to the drug” value in data set [2] (2-hour window, two replicate measurements, DOPC:SM:Chol 40:40:20) was “impermeable”. Besides, the “time for emission to reach steady state” value in data set [2] (unstirred solution, ternary bilayer) is on record as “less than 20 mins”.

As to `CC(C)Cc1ccc(C(C)C(=O)O)cc1` (centres unmarked) [Ibuprofen], in data set [3], the “permeability across DOPC bilayer (dynamics of evolution of SERS signal, presence vs absence of bilayer)” value is “passively permeable”.

For `[Ru+2].c1ccc(-c2ccccn2)nc1.c1ccc(-c2ccccn2)nc1.c1ccc(-c2ccccn2)nc1` [[Ru(bpy)3[ complex], the “membrane permeability at DOPC bilayers (second emission rise and plateau)” value in data set [1] (DOPC bilayers, fluorescence) is listed as “impermeable”.
